Drawing on patent US20040209799A1, “JAK/STAT pathway inhibitors and the uses thereof” (priority 2000, published 2004), this text covers inhibition for one compound.

In this test the test system is IL-1α-induced aggrecanase activity in bovine chondrocytes. The test is described as follows: IL-1α-induced 35S-labeled proteoglycan release (aggrecanase activity) in bovine chondrocytes. Particulars: Bos taurus, Chondrocyte, 1 ng/ml rhIL-1α, primary bovine articular chondrocytes. Format: cell-based. The procedure:
Primary bovine articular chondrocytes were isolated from the dissected articular cartilage of calf stifle joints using a thirty minute (37° C.) 1 mg/ml hyaluronidase (Boehringer Mannheim, Indianapolis, Ind.) treatment, followed by a thirty minute (37° C.) 2 mg/ml collagenase P (Boehringer Mannheim, Indianapolis, Ind.) and 2.5 mg/ml trypsin (GIBCO/BRL, Gaithersburg, Md.) treatment. Enzyme solutions were prepared in serum-free 1:1 Delbecco's modified essential medium/Ham's F-12 (DMEM/F12), and filter sterilized with a 0.22 μm Millex®-GV filter (Millipore S. A., Molsheim, France). A third, overnight digestion (0.5 mg/ml collagenase P at 37° C.) was performed in a Bellco stir flask.
Bovine chondrocytes were recovered by addition of an equal volume of DMEM/F12 supplemented with 10% fetal bovine serum (FBS) to neutralize enzymes, filtered through a 70 μm nylon Falcon® Cell Strainer (Beckton Dickinson, Franklin Lakes, N.J.), and centrifuged at 1000×g for 10 min at room temperature. […]
On day 28, the 0.5 ml media was removed and placed in a scintillation minivial. 4 ml of scintillation fluid was added and radioactivity in the media was quantified by scintillation counting. The cell layer was rinsed in PBS and harvested with 0.5 ml of 1× trypsin-EDTA, and quantified by scintillation counting as above. […]
Data were determined and expressed as follows: […]

On to `NC1=NC(=O)C(=C2CCNC(=O)c3[nH]ccc32)N1` [DBH-2FB], for which the inhibition at 5 µM was 100%.

As usually defined, the inhibition is the change of the read-out against control, counted positive when it falls. A low value points to a weak effect.
